Read-outs that look alike come from different tables or passages of the source.
Key:
[1] = system: maximum electroshock seizure in mice; assay: Maximum electroshock seizure test (MES) in the mouse; type: in vivo, mouse (albino race); settings: read-out: ED50 - MES
[2] = system: pentylenetetrazol (Metrazol) seizure in mice; assay: Subcutaneous pentylenetetrazol (Metrazol) seizure threshold test (MET) in the mouse; type: in vivo; settings: 1 h, read-out: ED50 - MET
[3] = in vivo; settings: mouse, in vivo
From the text: (§1) As to MET, it is known that pentylene-tetrazol (metrazol) administered subcutaneously to mice in a loose fold of skin on the back of the neck, produces seizures. […] Failure to observe even a threshold seizure is defined as protection. In the same table the LD50 values (lethal dose 50), evaluated in the mouse both I.p. and per os, are given.

[4] = system: mouse; assay: in vivo; settings: i.p.
From the text: as §1

[5] = ip, mouse, i.p., electroshock 60 Hz, 0.2 sec, 25 mA, 30 or 60 minutes after administration
[6] = po, mouse, os, electroshock 60 Hz, 0.2 sec, 25 mA, 30 or 60 minutes after administration
[7] = ip, mouse, i.p., pentylenetetrazol 130 mg/Kg s.c. 30 minutes after administration, observed 60 minutes
[8] = po, mouse, os, pentylenetetrazol 130 mg/Kg s.c. 60 minutes after administration, observed 60 minutes

Row | SMILES | ED50 [1, 5] [mg/kg] | ED50 [1, 6] [mg/kg] | ED50 ([2]; Mus musculus, ip) [mg/kg] | ED50 ([2]; Mus musculus, po) [mg/kg] | ED50 ([1]; Mus musculus, ip) [mg/kg] | ED50 ([1]; Mus musculus, po) [mg/kg] | LD50 ([3]; ip) [mg/kg] | LD50 ([3]; po) [mg/kg] | LD50 [4] [mg/kg] | ED50 [2, 7] [mg/kg] | ED50 [2, 8] [mg/kg]
1 | OC(Cn1ccnc1)c1ccc(CCc2ccccc2)cc1 (stereo not drawn) [15/1533, 4-[1"-hydroxy-2"-(N-imidazolyl)-ethyl]-bibenzyl] | 10 | 12 | 9 | 10 |  |  |  |  |  |  | 
2 | O=C(Cn1ccnc1)c1ccc(C2CCCCC2)cc1 [15/1803] |  |  | 18 | 32 | 66 | 92 |  |  |  |  | 
3 | Cc1cc(C)c(C)c(C(=O)Cn2ccnc2)c1C [Compound 1323, 3-(N-imidazolyl-acetyl)-durene] |  |  | 19 | 28 | 18 | 33 | 420 | 1.17 |  |  | 
4 | O=C(Cn1ccnc1)c1ccc(-c2ccccc2)cc1 [Compound 1341, 4-(N-imidazolyl-acetyl)-biphenyl] |  |  | 28 | 10 | 54 | 76 |  |  |  |  | 
5 | OC(Cn1ccnc1)c1ccc(-c2ccccc2)cc1 (stereo not drawn) [Compound 1342, 4-[1"-hydroxy-2"-(N-imidazolyl)-ethyl]-biphenyl] |  |  | 25 | 20 | 25 | 25 | 1.15 |  |  |  | 
6 | Cc1c(C)c([N+](=O)[O-])c(C)c(C)c1C(=O)Cn1ccnc1 [Compound 1429, 3-(N-imidazolyl-acetyl)-6-nitro-durene] | 75 | 54 | 100 | 52 |  |  |  |  |  |  | 
7 | CC(C)CCSc1ccc(C(O)Cn2ccnc2)cc1 (stereo not drawn) [Compound 1455] | 15 | 31 | 19 | 22 |  |  | 420 |  |  |  | 
8 | Cc1c(C)c(C(=O)Cn2ccnc2)c(C)c(C)c1Br [Compound 1457, 3-(N-imidazolyl-acetyl)-6-bromo-durene] |  |  | 90 | 57 | 180 | 190 |  |  |  |  | 
9 | CC(C)(C(=O)c1ccc(-c2ccccc2)cc1)n1ccnc1 [Compound 1488, 4-[2"-methyl-2"-(N-imidazolyl)-propionyl]-biphenyl] |  |  | 25 | 37 | 30 | 34 |  | 1.87 |  |  | 
10 | O=C(CCn1ccnc1)c1ccc(-c2ccccc2)cc1 [Compound 1490, 4-[3"-(N-imidazolyl)-propionyl]-biphenyl] |  |  | 15 | 30 | 60 | 36 |  |  | 360 |  | 
11 | CC(C)(C(O)c1ccc(-c2ccccc2)cc1)n1ccnc1 (stereo not drawn) [Compound 1492] | 24 | 27 |  |  |  |  | 420 | 2400 |  | 10 | 14
12 | Cc1c(C)c(C(O)Cn2ccnc2)c(C)c(C)c1Cl (stereo not drawn) [Compound 1515, 3-[1'-hydroxy-2'-(N-imidazolyl)-ethyl]-6-chloro-durene] | 300 | 150 | 150 | 75 |  |  |  |  |  |  | 
13 | Cc1c(C)c(C)c(C(O)Cn2ccnc2)c(C)c1C (stereo not drawn) [Compound 1516, 3-[1'-hydroxy-2'-(N-imidazolyl)-ethyl]-6-methyl-durene] | 46 | 57 |  |  |  |  | 655 | 1800 |  | 13 | 35
14 | Cc1c(C)c(C(=O)Cn2ccnc2)c(C)c(C)c1Cl [Compound 1517, 3-(N-imidazolyl-acetyl)-6-chloro-durene] | 80 | 80 | 150 | 150 |  |  |  |  |  |  | 
15 | Cc1c(C)c(C)c(C(=O)Cn2ccnc2)c(C)c1C [Compound 1518, 3-(N-imidazolyl-acetyl)-6-methyl-durene] | 13 | 45 | 23 | 50 |  |  |  | 1800 |  |  | 
16 | O=C(Cn1ccnc1)c1ccc(CCc2ccccc2)cc1 [Compound 1532, 4-(N-imidazolyl-acetyl)-bibenzyl] |  |  | 11 | 17 | 11 | 37 |  | 1.55 | 300 |  | 
17 | OC(Cn1ccnc1)c1ccc(C2CCCCC2)cc1 (stereo not drawn) [Compound 1534, 1-[1'-hydroxy-2'-(N-imidazolyl)-ethyl]-4-cyclohexyl-benzene] | 50 | 60 |  |  |  |  | 490 | 2700 |  | 25 | 27
18 | CC(C(O)c1ccc(Sc2ccccc2)cc1)n1ccnc1 (stereo not drawn) [Compound 1540] |  |  | 39 | 150 | 155 | 150 |  |  |  |  | 
19 | CC(C)(C(O)c1ccc(Sc2ccccc2)cc1)n1ccnc1 (stereo not drawn) [Compound 1541] |  |  | 23 | 135 | 50 | 190 |  |  |  |  | 
20 | O=C(OC(Cn1ccnc1)c1ccc(-c2ccccc2)cc1)c1ccccc1 (stereo not drawn) [Compound 1575, 4-[1"-benzoyloxy-2"-(N-imidazolyl)-ethyl]-biphenyl] | 66 | 135 | 27 | 62 |  |  |  | 1300 |  |  | 
21 | O=C(CCn1ccnc1)c1ccc(CCc2ccccc2)cc1 [Compound 1585] |  |  | 25 | 25 | 25 | 100 |  |  |  |  | 
22 | C(=Cn1ccnc1)c1ccc(-c2ccccc2)cc1 [Compound 1598, 4-(N-imidazolyl-vinylene)-biphenyl] |  |  | 69 | 80 | 185 | 145 |  |  |  |  | 
23 | O=C1NC(=O)C(c2ccccc2)(c2ccccc2)N1 [Diphenylidantoin, diphenylidantoin, reference compound] | 6 | 10 |  |  |  |  |  |  |  | 6 | 5
24 | CCC1(c2ccccc2)C(=O)NC(=O)NC1=O [Phenobarbital, phenobarbital, reference compound] |  |  | 9 | 10 | 14 | 18 | 242 | 245 |  |  | 
